Earlier results in publication PMC9302689 (British Journal of Clinical Pharmacology, 2022).

Experiments:
[1] = cited from earlier work
[2] = cited from earlier work; remark: listed apart in the source

Compound: CNC1(c2ccccc2Cl)CCCCC1=O (stereo not shown) [Ketamine]
- NeuroCart effects [1]: decreased saccadic peak velocity, adaptive tracking and alertness and increased body sway and psychedelic effects

Compound: CN(C)CCCC1(c2ccc(F)cc2)OCc2cc(C#N)ccc21 (stereo not shown) [citalopram]
- Effect on serum cortisol and prolactin levels [2]: increase levels of these hormones

Compound: CN(C)CCC[C@@]1(c2ccc(F)cc2)OCc2cc(C#N)ccc21 [escitalopram]
- Effect on serum cortisol and prolactin levels [2]: increase levels of these hormones

Compound: Buprenorphine
- NeuroCart effects [1]: decreased adaptive tracking and saccadic peak velocity and increased body sway
